Patent US20220323406A1, “METHODS AND COMPOSITIONS FOR DIFFERENTIATING STEM CELLS” (Massachusetts Institute of Technology, priority 2019, published 2022)
Where a name gives a salt, the structure may show the parent alone.

Columns and labels:
[1] = test system: ENR+CD organoids (ISC to Paneth cell differentiation); experiment: Primary screen: basal (non-stimulated) lysozyme secretion LYZ.NS, 2.5-D 384-well ENR+CD organoid differentiation; assay type: cell-based, mouse
Text: (§1) High-throughput screening.

[2] = test system: ENR+CD organoids (ISC to Paneth cell differentiation); experiment: Primary screen: CCh-stimulated lysozyme secretion LYZ.S, 2.5-D 384-well ENR+CD organoid differentiation; assay type: cell-based, mouse; settings: primary screen
Text: as §1

ENR+CD organoids = experiment: Primary screen: ATP (CellTiter-Glo 3D, CTG) cell number/viability, 2.5-D 384-well ENR+CD organoids;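 note: compounds given at plating and again on day 3 over a 6-day differentiation from ENR+CV stem-cell-enriched precursors, ATP measured on day 6, plate median as control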
[3] = primary screen, standard z score, dose 0.08 uM
[4] = primary screen, standard z score, dose 0.40 uM
[5] = primary screen, standard z score, dose 2.00 uM
[6] = primary screen, standard z score, dose 10.00 uM
[7] = primary screen, dose 0.08 uM, standard z score
[8] = primary screen, dose 0.40 uM, standard z score
[9] = primary screen, dose 2.00 uM, standard z score
[10] = primary screen, dose 10.00 uM, standard z score
[11] = primary screen; dose 0.08 uM; FC vs plate median
[12] = primary screen; dose 0.40 uM; FC vs plate median
[13] = primary screen; dose 2.00 uM; FC vs plate median
[14] = primary screen; dose 10.00 uM; FC vs plate median
[15] = primary screen, dose 0.08 uM, FC relative to plate median
[16] = primary screen, dose 0.40 uM, FC relative to plate median
[17] = primary screen, dose 2.00 uM, FC relative to plate median
[18] = primary screen, dose 10.00 uM, FC relative to plate median

Structure (SMILES)	Dose.FC.LYZ.NS ([1]; primary screen, dose 0.08 uM)	Dose.FC.LYZ.NS ([1]; primary screen, dose 0.40 uM)	Dose.FC.LYZ.NS ([1]; primary screen, dose 2.00 uM)	Dose.FC.LYZ.NS ([1]; primary screen, dose 10.00 uM)	Z.LYZ.NS [1, 3]	Z.LYZ.NS [1, 4]	Z.LYZ.NS [1, 5]	Z.LYZ.NS [1, 6]	Dose.FC.LYZ.S ([2]; dose 0.08 uM)	Dose.FC.LYZ.S ([2]; dose 0.40 uM)	Dose.FC.LYZ.S ([2]; dose 2.00 uM)	Dose.FC.LYZ.S ([2]; dose 10.00 uM)	Dose.FC.CTG (ENR+CD organoids; primary screen, dose 0.08 uM)	Dose.FC.CTG (ENR+CD organoids; primary screen, dose 0.40 uM)	Dose.FC.CTG (ENR+CD organoids; primary screen, dose 2.00 uM)	Dose.FC.CTG (ENR+CD organoids; primary screen, dose 10.00 uM)	Z.LYZ.NS [1, 7]	Z.LYZ.NS [1, 8]	Z.LYZ.NS [1, 9]	Z.LYZ.NS [1, 10]	also measured
COc1cccc2c1C(=O)c1c(O)c3c(c(O)c1C2=O)C[C@@](O)(C(C)=O)C[C@@H]3O[C@H]1C[C@H](N)[C@H](O)[C@H](C)O1 [Daunorubicin HCl]	−0.136 log2 fold change	−0.241 log2 fold change	−0.262 log2 fold change	−0.260 log2 fold change	−1.188	−2.099	−2.280	−2.262	−0.096 log2 fold change	−0.329 log2 fold change	−0.343 log2 fold change	−0.374 log2 fold change	−0.467 log2 fold change	−0.601 log2 fold change	−0.817 log2 fold change	−1.100 log2 fold change					
CC1(COc2ccc3c(c2)ncn3-c2ccc3cccc(N4CCC(N)CC4)c3n2)COC1 [Crenolanib (CP-868596)]	0.121 log2 fold change	0.051 log2 fold change	0.122 log2 fold change	−0.224 log2 fold change	1.051	0.441	1.065	−1.951	0.094 log2 fold change	0.043 log2 fold change	0.149 log2 fold change	−0.292 log2 fold change	−0.069 log2 fold change	−0.025 log2 fold change	0.053 log2 fold change	−0.338 log2 fold change					Z.CTG (ENR+CD organoids; [3]): −0.165; Z.CTG (ENR+CD organoids; [4]): −0.059; Z.CTG (ENR+CD organoids; [5]): 0.127; Z.CTG (ENR+CD organoids; [6]): −0.808
Cl.Cl.NC1(c2ccc(-c3nc4ccn5c(=O)[nH]nc5c4cc3-c3ccccc3)cc2)CCC1 [MK-2206 2HCl]																	0.205	−0.550	−1.587	−2.058	Dose.FC.LYZ.NS [1, 11]: 0.024 log2 fold change; Dose.FC.LYZ.NS [1, 12]: −0.063 log2 fold change; Dose.FC.LYZ.NS [1, 13]: −0.182 log2 fold change; Dose.FC.LYZ.NS [1, 14]: −0.236 log2 fold change; Dose.FC.LYZ.S ([2]; dose 0.08 uM, FC vs plate median): 0.071 log2 fold change; Dose.FC.LYZ.S ([2]; dose 0.40 uM, FC vs plate median): 0.083 log2 fold change; Dose.FC.LYZ.S ([2]; dose 2.00 uM, FC vs plate median): −0.239 log2 fold change; Dose.FC.LYZ.S ([2]; dose 10.00 uM, FC vs plate median): −0.367 log2 fold change; Z.CTG (ENR+CD organoids; [7]): 0.169; Z.CTG (ENR+CD organoids; [8]): −0.055; Z.CTG (ENR+CD organoids; [9]): −0.425; Z.CTG (ENR+CD organoids; [10]): −1.290; Dose.FC.CTG (ENR+CD organoids; [11]): 0.071 log2 fold change; Dose.FC.CTG (ENR+CD organoids; [12]): −0.023 log2 fold change; Dose.FC.CTG (ENR+CD organoids; [13]): −0.178 log2 fold change; Dose.FC.CTG (ENR+CD organoids; [14]): −0.540 log2 fold change
Cc1cn([C@H]2C=C[C@@H](CO)O2)c(=O)[nH]c1=O [Stavudine (d4T)]																	0.620	0.027	0.074	−0.828	Dose.FC.LYZ.NS [1, 15]: 0.071 log2 fold change; Dose.FC.LYZ.NS [1, 16]: 0.003 log2 fold change; Dose.FC.LYZ.NS [1, 17]: 0.009 log2 fold change; Dose.FC.LYZ.NS [1, 18]: −0.095 log2 fold change; Dose.FC.LYZ.S ([2]; dose 0.08 uM, FC relative to plate median): 0.134 log2 fold change; Dose.FC.LYZ.S ([2]; dose 0.40 uM, FC relative to plate median): 0.001 log2 fold change; Dose.FC.LYZ.S ([2]; dose 2.00 uM, FC relative to plate median): −0.003 log2 fold change; Dose.FC.LYZ.S ([2]; dose 10.00 uM, FC relative to plate median): −0.120 log2 fold change; Dose.FC.CTG (ENR+CD organoids; [15]): 0.095 log2 fold change; Z.CTG (ENR+CD organoids; [7]): 0.226; Dose.FC.CTG (ENR+CD organoids; [16]): 0.147 log2 fold change; Z.CTG (ENR+CD organoids; [8]): 0.351; Dose.FC.CTG (ENR+CD organoids; [17]): 0.075 log2 fold change; Z.CTG (ENR+CD organoids; [9]): 0.179; Dose.FC.CTG (ENR+CD organoids; [18]): −0.075 log2 fold change; Z.CTG (ENR+CD organoids; [10]): −0.179
CC(=O)Nc1nc2c(Oc3cc(-c4ccc(C(F)(F)F)cc4)ncn3)cccc2s1 [AMG-517]	0.020 log2 fold change	0.060 log2 fold change	−0.006 log2 fold change	0.031 log2 fold change					0.084 log2 fold change	0.060 log2 fold change	0.002 log2 fold change	0.266 log2 fold change	0.161 log2 fold change	0.113 log2 fold change	0.112 log2 fold change	0.056 log2 fold change					Z.LYZ.NS (standard z score) ([1]; primary screen, dose 0.08 uM): 0.178; Z.LYZ.NS (standard z score) ([1]; primary screen, dose 0.40 uM): 0.522; Z.LYZ.NS (standard z score) ([1]; primary screen, dose 2.00 uM): −0.051; Z.LYZ.NS (standard z score) ([1]; primary screen, dose 10.00 uM): 0.267
